According to patent publication US20170209417A1, “POLYCOMPLEX GEL FOR TREATING DISEASES OF INTESTINAL/DIGESTIVE TRACT” (priority 2014, published 2017):

Key:
[1] = system: rabbits; settings: rabbit, in vivo
Protocol: Besides, it is necessary to point out that the claimed polycomplex gel is characterized by the absence of allergenic properties. Considering the fact that nowadays, an obligatory stage of a new medicine study is the evaluation of the allergenicity thereof, the claimed polycomplex gel has passed a verification on the basis of the Arthus-Sakharov test. For this purpose, six rabbits of both sexes weighting from 2.0 to 2.5 kg were injected with thymogen under sterile conditions subcutaneously on one side of the back with the dose of 10 mg/kg in 1.0 ml of sodium chloride isotonic solution and 1 ml of hors serum subcutaneously into the back on the other side. The rabbits of the control group were injected, instead of thymogen, with 1 ml of sodium chloride isotonic solution. The injections of thymogen and of horse serum were repeated for 6 times with a 5-6 days' interval.

[2] = system: allergic agglutinating autoantibodies; settings: in vivo, iv

thymogen
Allergenicity (conclusion, standard methods) [1]: not allergenic | Titer growth of allergic agglutinating autoantibodies [2]: not accompanied by any titer growth
